Measured values reported in patent publication US8604217B2, “Compound, a process for its preparation, a pharmaceutical composition, use of a compound, a method for modulating or regulating serine/threonine kinases and a serine/threonine kinases modulating agent” (Selvita S.A., priority 2009, dated 2013).
Where two headings read alike, the source gives them in different places.

Columns and labels:
PIM-1 = PIM-1 (Homo sapiens (Human), UniProt P11309); experiment: Luminometric kinase assay for PIM1 kinase (Kinase-Glo); assay type: biochemical; conditions: 1 μM ATP, 25 min at RT
PIM-1, sequence (P11309 whole entry): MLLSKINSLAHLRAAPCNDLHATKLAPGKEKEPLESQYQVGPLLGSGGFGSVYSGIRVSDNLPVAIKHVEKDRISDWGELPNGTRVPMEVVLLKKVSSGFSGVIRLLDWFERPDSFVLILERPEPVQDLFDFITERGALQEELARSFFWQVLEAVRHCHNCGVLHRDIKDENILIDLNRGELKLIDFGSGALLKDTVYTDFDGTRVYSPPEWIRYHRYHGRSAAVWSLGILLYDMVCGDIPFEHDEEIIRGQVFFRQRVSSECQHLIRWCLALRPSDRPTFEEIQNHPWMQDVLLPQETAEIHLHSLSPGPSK
In short: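 Kinase and substrate reacted in 8 mM MOPS/NaOH pH7.0, 0.2 mM EDTA, 2 mM MgCl2 with 1 μM ATP for 25 min at RT, compounds serially diluted from 1 μM. Remaining ATP read by Kinase-Glo luminescence; IC50 from variable-slope sigmoidal fit.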

[1] = test system: human chronic myelocytic leukemia K562 cells; experiment: Growth inhibition test (MTS) on K562 cells; assay type: cell-based; conditions: 72 hours, read-out: K562 ED50
Experimental: (§1) Ten thousand cells of human chronic myelocytic leukemia K562 were inoculated into each well of a 96-well microplate (manufactured by Corning Corp.) using Iscove's MDM medium (culture medium) containing 10% fetal calf serum (FCS). Next day, a dimethyl sulfoxide (DMSO) solution of each test compound prepared in a concentration of 10 mmol/L was further diluted with culture medium to the desired concentrations (0.1, 0.5, 1, 2.5, 5 and 10 micromol/L), and the diluted solution was added to each well. The individual wells were further cultured in 5% carbon dioxide at 37° C. for 72 hours. After completion of the culture, 10 μl MTS (3-(4,5-Dimethyl-2-thiazolyl)-5-(carboxymethoxyphenyl)-2-(4-sulfophenyl)-2H-tetrazolium, inner salt assay (CellTiter96® AQueous One Solution Cell Proliferation Assay, Promega) was added to each well, and culturing was performed in 5% carbon dioxide at 37° C. for 2 hours. Using a microplate spectrophotometer (Synergy 2 multi-mode microplate reader (BioTek)), the absorbance of each well was measured at 490 nm. The value for cells not incorporated with a test compound was designated as 100%. By comparing these values with the absorbance difference obtained at the well in which each test compound was added, the cell viability (% viability) after treatment with the test compound was calculated.

[2] = test system: human breast adenocarcinoma MCF7 cells; experiment: Growth inhibition test (MTS) on MCF7 cells; assay type: cell-based; conditions: read-out: MCF-7 ED50
In short: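 MCF7 cells seeded in DMEM with 10% FCS, dosed next day at 0.1–10 micromol/L (diluted from 10 mmol/L DMSO stock) and cultured 72 h at 37° C, 5% CO2. MTS added for 2 h, absorbance read at 490 nm; % viability calculated relative to untreated cells as 100%.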

[3] = test system: human colorectal adenocarcinoma SW480 cells; experiment: Growth inhibition test (MTS) on SW480 cells; assay type: cell-based; conditions: read-out: SW480 ED50
Experimental: as §1, with “Two” for “Ten”, “colorectal adenocarcinoma SW480” for “chronic myelocytic leukemia K562”, “Corp.), and” for “Corp.)”, “DMEM/Ham's F121:1” for “Iscove's MDM”, “5%” for “10%”

[4] = test system: human prostate adenocarcinoma PC3 cells; experiment: Growth inhibition test (MTS) on PC3 cells; assay type: cell-based; conditions: Homo sapiens, PC-3, 72 hours, read-out: PC-3 ED50
[5] = test system: human hepatoma HepG2 cells; experiment: Growth inhibition test (MTS) on HepG2 cells; assay type: cell-based; conditions: 72 hours, read-out: HepG2 ED50
In short: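 HepG2 cells in DMEM with 10% FCS were exposed for 72 h at 37 °C, 5% CO2, to 0.1, 0.5, 1, 2.5, 5 and 10 micromol/L compound. MTS was then added for 2 h and absorbance read at 490 nm. % viability was calculated relative to untreated cells set at 100%.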

[6] = test system: human myelomonocytic, biphenotypic leukemia MV4-11 cells; experiment: Growth inhibition test (MTS) on MV4-11 cells; assay type: cell-based; conditions: Homo sapiens, MV4-11, 72 hours, read-out: MV-4-11 ED50
In short: MV4-

[7] = test system: human erytroblast leukemia HEL-92.1.7 cells; experiment: Growth inhibition test (MTS) on HEL-92.1.7 cells; assay type: cell-based; conditions: 72 hours, read-out: HEL92 ED50
Experimental: as §1, with “erytroblast” for “chronic myelocytic”, “HEL-92.1.7” for “K562”, “RPMI 1640” for “Iscove's MDM”

| Compound | IC50 (PIM-1) [µM] | IC50 [1] [µM] | IC50 ([2]; 72 hours) [µM] | IC50 ([3]; 72 hours) [µM] | IC50 [4] [µM] | IC50 [5] [µM] | IC50 [6] [µM] | IC50 [7] [µM] | IC50 ([2]; Homo sapiens, MCF7, 72 hours) [µM] | IC50 ([3]; Homo sapiens, SW480, 72 hours) [µM] |
| --- | --- | --- | --- | --- | --- | --- | --- | --- | --- | --- |
| Brc1c(Br)c(Br)c2[nH]c(NCCN3CCCCC3)nc2c1Br [Compound 13, 4,5,6,7-tetrabromo-N-(2-(piperidin-1-yl)ethyl)-1H-benzo[d]imidazol-2-amine] | 0.319 | 3.72 | 3.65 | 1.08 | 3.86 | 2.54 | – | – | – | – |
| Brc1c(Br)c(Br)c2[nH]c(NCCN3CCCC3)nc2c1Br [Compound 14, 4,5,6,7-tetrabromo-N-(2-(pyrrolidin-1-yl)ethyl)-1H-benzo[d]imidazol-2-amine] | 0.0578 | 3.59 | 7.76 | 1.53 | 3.96 | 2.12 | – | – | – | – |
| CN1CCN(c2nc3c(Br)c(Br)c(Br)c(Br)c3[nH]2)CC1 [Compound 21, 4,5,6,7-tetrabromo-2-(4-methylpiperazin-1-yl)-1H-benzo[d]imidazole] | 0.0419 | 7.99 | – | 5.98 | – | 6.32 | – | – | – | – |

Results, then the molecule that gave them:

| IC50 (PIM-1) [µM] | IC50 [1] [µM] | IC50 ([2]; 72 hours) [µM] | IC50 ([3]; 72 hours) [µM] | IC50 [4] [µM] | IC50 [5] [µM] | IC50 [6] [µM] | IC50 [7] [µM] | IC50 ([2]; Homo sapiens, MCF7, 72 hours) [µM] | IC50 ([3]; Homo sapiens, SW480, 72 hours) [µM] | Compound |
| --- | --- | --- | --- | --- | --- | --- | --- | --- | --- | --- |
| 0.0227 | – | – | 6.92 | 7.45 | – | 3.46 | 8.37 | 8.22 | – | Brc1c(Br)c(Br)c2[nH]c(NCCCn3ccnc3)nc2c1Br [Compound 65, N-(3-(1H-imidazol-1-yl)propyl)-4,5,6,7-tetrabromo-1H-benzo[d]imidazol-2-amine] |
| 0.0453 | – | – | – | 6.88 | 3.76 | 4.57 | 2.21 | 5.8 | – | CN1CCN(C2CCN(c3nc4c(Br)c(Br)c(Br)c(Br)c4[nH]3)CC2)CC1 [Compound 385, 4,5,6,7-tetrabromo-2-(4-(4-methylpiperazin-1-yl)piperidin-1-yl)-1H-benzo[d]imidazole] |
| – | – | – | – | 8.94 | – | 3.03 | 7.1 | 8.23 | 4.32 | Cc1nc2ccccn2c1CN1CCN(c2nc3c(Br)c(Br)c(Br)c(Br)c3[nH]2)CC1 [Compound 414, 4,5,6,7-tetrabromo-2-(4-((2-methyl-1H-imidazo[1,2-a]pyridin-3-yl)methyl)piperazin-1-yl)-1H-benzo[d]imidazole] |
